Tests used:
[1] = target: T1, Solute carrier family 22 member 6 (Rattus norvegicus, UniProt O35956); assay: (§1) TP_TRANSPORTER: uptake in Xenopus laevis oocytes; type: functional, cell-based; details: oocyte
T1 sequence (O35956 whole entry): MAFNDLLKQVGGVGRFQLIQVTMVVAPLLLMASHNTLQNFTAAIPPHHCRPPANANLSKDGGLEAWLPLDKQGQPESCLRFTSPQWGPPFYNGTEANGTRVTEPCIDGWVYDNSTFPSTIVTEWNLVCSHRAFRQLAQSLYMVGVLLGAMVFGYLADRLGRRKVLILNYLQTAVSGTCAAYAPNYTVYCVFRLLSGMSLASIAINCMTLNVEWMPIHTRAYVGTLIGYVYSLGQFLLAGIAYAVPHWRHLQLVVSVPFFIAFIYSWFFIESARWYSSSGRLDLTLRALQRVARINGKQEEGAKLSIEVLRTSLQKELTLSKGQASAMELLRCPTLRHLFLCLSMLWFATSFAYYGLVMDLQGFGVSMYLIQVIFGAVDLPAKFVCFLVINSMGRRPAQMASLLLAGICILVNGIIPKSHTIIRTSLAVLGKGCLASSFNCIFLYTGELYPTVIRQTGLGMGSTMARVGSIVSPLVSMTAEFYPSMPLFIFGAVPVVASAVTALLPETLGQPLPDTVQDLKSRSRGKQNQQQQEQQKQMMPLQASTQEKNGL

[2] = target: T2, Solute carrier family 22 member 6 (Homo sapiens, UniProt Q4U2R8); assay: as §1; type: functional, cell-based; details: oocyte
T2 sequence (Q4U2R8 whole entry): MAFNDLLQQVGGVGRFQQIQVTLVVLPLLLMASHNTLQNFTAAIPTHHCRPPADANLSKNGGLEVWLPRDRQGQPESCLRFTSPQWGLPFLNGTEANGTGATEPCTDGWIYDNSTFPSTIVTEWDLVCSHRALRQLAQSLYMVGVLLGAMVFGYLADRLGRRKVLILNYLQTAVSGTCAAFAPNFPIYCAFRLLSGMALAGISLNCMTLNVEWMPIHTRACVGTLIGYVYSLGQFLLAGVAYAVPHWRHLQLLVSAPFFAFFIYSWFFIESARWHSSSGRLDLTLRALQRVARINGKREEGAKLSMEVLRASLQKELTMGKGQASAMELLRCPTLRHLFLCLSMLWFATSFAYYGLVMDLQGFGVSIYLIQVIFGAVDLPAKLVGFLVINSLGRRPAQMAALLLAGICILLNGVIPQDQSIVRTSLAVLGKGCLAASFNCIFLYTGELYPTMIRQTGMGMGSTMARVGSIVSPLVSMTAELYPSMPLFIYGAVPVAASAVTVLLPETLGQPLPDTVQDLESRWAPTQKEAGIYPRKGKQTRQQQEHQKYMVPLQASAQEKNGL

[3] = target: T2, Solute carrier family 22 member 6; assay: TP_TRANSPORTER: inhibition of PAH uptake (PAH: 50 uM, 2,4-D: 1000 uM) in Xenopus laevis oocytes; type: functional, cell-based; details: oocyte
[4] = target: T2, Solute carrier family 22 member 6; assay: TP_TRANSPORTER: inhibition of PAH uptake (PAH: 50 uM, BCG: 1000 uM) in Xenopus laevis oocytes; type: functional, cell-based; details: oocyte
[5] = target: T2, Solute carrier family 22 member 6; assay: TP_TRANSPORTER: inhibition of PAH uptake (PAH: 50 uM, alpha-KG: 1000 uM) in Xenopus laevis oocytes; type: functional, cell-based; details: oocyte
[6] = substrate: Nc1ncnc2c1ncn2CCOCP(=O)(O)O; assay: as §1; type: functional, cell-based, Oocyte
[7] = substrate: Nc1ccn(C[C@@H](CO)OCP(=O)(O)O)c(=O)n1; assay: as §1; type: functional, cell-based, Oocyte

In the case of `Nc1nc(N)c2ccn(CCOCP(=O)(O)O)c2n1`, the Activity [1] is reported as “substrate [+]” and the Activity [2] is reported as “substrate [+]”.

In the case of `O=C(O)COc1ccc(Cl)cc1Cl` [2,4-DICHLOROPHENOXYACETIC ACID], the Activity [3] is reported as “inhibitor [(at a rough estimate) <5 % of control]”.

`Nc1nc2c(ncn2CCOCP(=O)(O)O)c(=O)[nH]1` [GS-438] was tested, and the Activity [1] was “substrate [+]” and the Activity [2] was “substrate [+]”.

In the case of `Cc1c(C2(c3cc(Br)c(O)c(Br)c3C)OS(=O)(=O)c3ccccc32)cc(Br)c(O)c1Br` [BROMCRESOL GREEN], the Activity [4] is reported as “inhibitor [(at a rough estimate) <5 % of control]”.

For `O=C(O)CCC(=O)C(=O)O` [ALPHA-KETOGLUTARIC ACID], the Activity [5] was “inhibitor [(at a rough estimate) 5 % of control]”.

B1: Solute carrier family 22 member 6 (Rattus norvegicus) (protein)
chain: MAFNDLLKQVGGVGRFQLIQVTMVVAPLLLMASHNTLQNFTAAIPPHHCRPPANANLSKDGGLEAWLPLDKQGQPESCLRFTSPQWGPPFYNGTEANGTRVTEPCIDGWVYDNSTFPSTIVTEWNLVCSHRAFRQLAQSLYMVGVLLGAMVFGYLADRLGRRKVLILNYLQTAVSGTCAAYAPNYTVYCVFRLLSGMSLASIAINCMTLNVEWMPIHTRAYVGTLIGYVYSLGQFLLAGIAYAVPHWRHLQLVVSVPFFIAFIYSWFFIESARWYSSSGRLDLTLRALQRVARINGKQEEGAKLSIEVLRTSLQKELTLSKGQASAMELLRCPTLRHLFLCLSMLWFATSFAYYGLVMDLQGFGVSMYLIQVIFGAVDLPAKFVCFLVINSMGRRPAQMASLLLAGICILVNGIIPKSHTIIRTSLAVLGKGCLASSFNCIFLYTGELYPTVIRQTGLGMGSTMARVGSIVSPLVSMTAEFYPSMPLFIFGAVPVVASAVTALLPETLGQPLPDTVQDLKSRSRGKQNQQQQEQQKQMMPLQASTQEKNGL
With B1 the Km [6] was 270 µM and the Km [7] was 238 µM.

B2: Solute carrier family 22 member 6 (Homo sapiens) (protein)
chain: MAFNDLLQQVGGVGRFQQIQVTLVVLPLLLMASHNTLQNFTAAIPTHHCRPPADANLSKNGGLEVWLPRDRQGQPESCLRFTSPQWGLPFLNGTEANGTGATEPCTDGWIYDNSTFPSTIVTEWDLVCSHRALRQLAQSLYMVGVLLGAMVFGYLADRLGRRKVLILNYLQTAVSGTCAAFAPNFPIYCAFRLLSGMALAGISLNCMTLNVEWMPIHTRACVGTLIGYVYSLGQFLLAGVAYAVPHWRHLQLLVSAPFFAFFIYSWFFIESARWHSSSGRLDLTLRALQRVARINGKREEGAKLSMEVLRASLQKELTMGKGQASAMELLRCPTLRHLFLCLSMLWFATSFAYYGLVMDLQGFGVSIYLIQVIFGAVDLPAKLVGFLVINSLGRRPAQMAALLLAGICILLNGVIPQDQSIVRTSLAVLGKGCLAASFNCIFLYTGELYPTMIRQTGMGMGSTMARVGSIVSPLVSMTAELYPSMPLFIYGAVPVAASAVTVLLPETLGQPLPDTVQDLESRWAPTQKEAGIYPRKGKQTRQQQEHQKYMVPLQASAQEKNGL
B2 was tested, and the Km [6] was 30 µM and the Km [7] was 46 µM.
